Measurements as given in ChEMBL document CHEMBL1268938, “Identification of a red-emitting fluorescent ligand for in vitro visualization of human serotonin 5-HT(1A) receptors” (Bioorg Med Chem Lett, 2010).
pKi: −log10 of the molar value.

Biological target: T1, 5-hydroxytryptamine receptor 1A (Homo sapiens, UniProt P08908)
T1 sequence (P08908 whole entry): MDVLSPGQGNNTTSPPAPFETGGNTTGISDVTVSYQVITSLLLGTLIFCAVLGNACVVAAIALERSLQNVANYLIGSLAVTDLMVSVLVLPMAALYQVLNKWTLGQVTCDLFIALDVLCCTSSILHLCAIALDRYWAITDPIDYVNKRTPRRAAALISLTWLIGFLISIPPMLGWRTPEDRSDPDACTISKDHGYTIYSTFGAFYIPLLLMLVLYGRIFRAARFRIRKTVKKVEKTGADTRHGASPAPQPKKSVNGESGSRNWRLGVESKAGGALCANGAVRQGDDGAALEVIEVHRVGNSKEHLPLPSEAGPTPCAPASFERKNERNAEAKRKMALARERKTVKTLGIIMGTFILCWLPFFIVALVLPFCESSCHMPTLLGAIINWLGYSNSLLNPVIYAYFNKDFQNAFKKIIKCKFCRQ
Experiment: Displacement of [3H]8-OH-DPAT from human cloned 5HT1A receptor expressed in HEK293 cells
Type: cell-based

SMILES: COc1cccc(CCN2CCN(c3ccccc3OC)CC2)c1
- pKi: 8.62

SMILES: COc1ccccc1N1CCN(CCCCCNC(=O)c2ccc(SC3=C(/C=C/C4=[N+](CCCCS(=O)(=O)[O-])c5ccccc5C4(C)C)CCC/C3=C\C=C3\N(CCCCS(=O)(=O)O)c4ccccc4C3(C)C)cc2)CC1
- pKi: 7.18

SMILES: COc1ccccc1N1CCN(CCc2cccc(OCCCCCOc3cccc(CCN4CCN(c5ccccc5OC)CC4)c3)c2)CC1
- pKi: 8.77

SMILES: CCCCCN1CCN(c2ccccc2OC)CC1
- pKi: 8.29

SMILES: CCN(CC)c1ccc2cc(/C=C/C3=[N+](CCCCCC(=O)Oc4cccc(CCN5CCN(c6ccccc6OC)CC5)c4)c4ccccc4C3(C)C)c(=O)oc2c1
- pKi: 7.46
